Experimental data from ChEMBL document CHEMBL1201862, “PubChem BioAssay data set” (2004).
Active and inactive are the calls of the source.

Key:
[1] = target: T1, Fatty acid synthase (Homo sapiens, UniProt P49327); assay: inhibition of human FAS-TE enzyme activity – biochemical, kinetic fluorescence intensity, dose response (AID 624326); assay type: functional;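 further: rate of fluorescence rise from hydrolysis of a fluorogenic O-methyl fluorescein ester substrate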
[2] = target: Voltage-dependent T-type calcium channel subunit alpha-1H (Homo sapiens, UniProt O95180); assay type: functional;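 further: channel activity triggered by adding a high calcium stimulation buffer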
[3] = target: T1, Fatty acid synthase; assay: inhibition of human FAS-TE enzyme activity – biochemical, endpoint fluorescence intensity, uHTS hits, dose response (AID 624327); assay type: functional;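 further: fluorescence from hydrolysis of an O-methyl fluorescein acyl ester substrate by the enzyme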
[4] = target: Cytochrome P450 2C9 (Homo sapiens, UniProt P11712)
[5] = target: Large T antigen (Simian virus 40, UniProt P03070); assay type: functional, Betapolyomavirus macacae;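 further: Confirmatory-stage PubChem screen for compounds that inhibit SV40 T antigen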
[6] = target: Cytochrome P450 2C19 (Homo sapiens, UniProt P33261); assay: Cytochrome panel assay with activity outcomes. Panel member name: p450-cyp2c19 Compounds with AC50 equal or less than 10 uM are considered active; assay type: functional
[7] = target: T2, Aminopeptidase N (Plasmodium falciparum FcB1/Columbia, UniProt O96935); assay: malaria alanyl aminopeptidase activity blockers – biochemical, fluorogenic H-Leu-NHMec substrate, 1536-well (AID 1445); parameters: species or system Plasmodium falciparum 3D7, 3D7
T2 sequence (O96935 whole entry): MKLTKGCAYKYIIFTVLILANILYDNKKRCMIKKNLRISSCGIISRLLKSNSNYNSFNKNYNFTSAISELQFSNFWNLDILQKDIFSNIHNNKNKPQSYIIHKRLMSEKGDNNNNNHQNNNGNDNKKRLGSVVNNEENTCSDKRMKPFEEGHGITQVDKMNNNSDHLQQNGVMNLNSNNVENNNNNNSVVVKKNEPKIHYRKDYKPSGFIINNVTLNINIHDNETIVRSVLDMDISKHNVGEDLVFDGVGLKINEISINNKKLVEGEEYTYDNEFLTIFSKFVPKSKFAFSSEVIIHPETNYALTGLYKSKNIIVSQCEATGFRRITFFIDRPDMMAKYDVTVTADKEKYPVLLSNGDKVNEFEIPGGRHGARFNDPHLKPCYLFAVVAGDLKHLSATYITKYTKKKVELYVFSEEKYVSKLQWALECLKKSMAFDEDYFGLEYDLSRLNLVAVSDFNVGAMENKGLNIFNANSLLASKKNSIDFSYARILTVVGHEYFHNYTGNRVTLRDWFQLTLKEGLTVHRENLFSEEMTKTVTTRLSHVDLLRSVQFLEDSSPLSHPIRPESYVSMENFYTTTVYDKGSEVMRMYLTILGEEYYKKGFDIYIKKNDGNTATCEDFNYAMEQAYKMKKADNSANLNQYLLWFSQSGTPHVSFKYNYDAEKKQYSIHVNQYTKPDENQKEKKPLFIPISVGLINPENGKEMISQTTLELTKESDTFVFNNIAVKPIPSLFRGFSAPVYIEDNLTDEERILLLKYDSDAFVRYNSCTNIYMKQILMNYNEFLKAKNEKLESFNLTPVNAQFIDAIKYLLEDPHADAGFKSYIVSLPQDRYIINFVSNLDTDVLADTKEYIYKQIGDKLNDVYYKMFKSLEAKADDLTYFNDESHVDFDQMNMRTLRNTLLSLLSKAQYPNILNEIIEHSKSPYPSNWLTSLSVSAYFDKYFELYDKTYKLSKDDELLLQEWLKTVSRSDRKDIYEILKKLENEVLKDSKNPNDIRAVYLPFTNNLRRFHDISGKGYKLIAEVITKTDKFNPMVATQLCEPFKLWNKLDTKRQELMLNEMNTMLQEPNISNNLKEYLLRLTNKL

[8] = target: T3, Cytochrome P450 1A2 (Homo sapiens, UniProt P05177);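 further: PubChem cytochrome P450 panel assay, CYP1A2 panel member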
T3 sequence (P05177 whole entry): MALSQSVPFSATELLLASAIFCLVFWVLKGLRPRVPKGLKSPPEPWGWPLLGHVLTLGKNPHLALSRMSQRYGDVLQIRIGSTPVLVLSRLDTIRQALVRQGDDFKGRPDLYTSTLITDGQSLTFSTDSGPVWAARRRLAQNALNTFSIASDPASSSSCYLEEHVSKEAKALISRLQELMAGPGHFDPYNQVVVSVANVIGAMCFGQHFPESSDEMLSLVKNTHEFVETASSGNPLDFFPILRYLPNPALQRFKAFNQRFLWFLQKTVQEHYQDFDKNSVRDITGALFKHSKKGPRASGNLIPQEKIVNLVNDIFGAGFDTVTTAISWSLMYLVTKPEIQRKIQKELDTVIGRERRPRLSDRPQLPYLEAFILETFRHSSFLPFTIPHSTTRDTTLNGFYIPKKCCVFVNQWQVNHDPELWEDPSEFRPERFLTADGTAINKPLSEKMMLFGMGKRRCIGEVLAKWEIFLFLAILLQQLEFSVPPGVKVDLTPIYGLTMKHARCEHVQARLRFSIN

[9] = Trypanosoma cruzi growth suppression in host cells – NIH3T3 host cells, beta-gal luminescence, confirmation (AID 2044); assay type: functional, cell-based;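 further: intracellular parasites grown in NIH/3T3 mouse fibroblasts as host cells; luminescent beta-galactosidase reporter signal from transgenic T. cruzi replicating inside host cells; inhibitors lower the luminescence signal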
[10] = NIH3T3 cell viability loss – ATP luminescence, mouse fibroblasts, counter-screen, dose response (AID 2010); assay type: functional, cell-based;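 further: cells exposed to compound for about 90 hours before reading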
[11] = Luminescence Cell-Based Dose Retest to Confirm Inhibitors of Cancer Stem Cells. [Related pubchem assays (depositor defined):AID2717, AID2721]; assay type: functional; details: Homo sapiens
[12] = target: T4, Leucine aminopeptidase (Plasmodium falciparum 3D7, UniProt Q8IL11); assay: P. falciparum M17LAP inhibitors, primary screen, biochemical, fluorogenic H-Leu-NHMec substrate, 1536-well (AID 1619); assay type: functional
T4 sequence (Q8IL11 whole entry): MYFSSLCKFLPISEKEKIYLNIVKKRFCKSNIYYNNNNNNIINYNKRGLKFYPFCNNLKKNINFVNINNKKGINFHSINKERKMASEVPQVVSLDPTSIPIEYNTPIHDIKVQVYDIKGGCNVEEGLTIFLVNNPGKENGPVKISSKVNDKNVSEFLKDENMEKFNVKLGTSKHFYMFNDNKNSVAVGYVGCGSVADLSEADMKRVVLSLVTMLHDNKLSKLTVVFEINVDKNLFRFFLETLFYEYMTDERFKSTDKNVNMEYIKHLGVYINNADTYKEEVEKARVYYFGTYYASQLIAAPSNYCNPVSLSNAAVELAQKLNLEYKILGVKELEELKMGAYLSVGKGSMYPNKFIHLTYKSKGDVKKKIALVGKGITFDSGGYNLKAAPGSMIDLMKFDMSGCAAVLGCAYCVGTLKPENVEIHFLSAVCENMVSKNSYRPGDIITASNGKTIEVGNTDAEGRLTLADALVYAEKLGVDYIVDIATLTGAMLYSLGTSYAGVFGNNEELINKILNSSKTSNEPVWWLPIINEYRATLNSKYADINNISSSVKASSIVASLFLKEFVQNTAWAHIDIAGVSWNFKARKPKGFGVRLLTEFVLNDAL

[13] = cells; assay type: functional
[14] = system: Streptococcus; assay: GAS UMAA2166 growth inhibition – luminescence, BacTiterGlo, counter-screen for streptokinase expression inhibitor project, dose response (AID 1915); assay type: functional, organism-based;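 further: potency for reduction of bacterial viability or growth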
[15] = HepG2 cell cytotoxicity, dose response, cytotoxicity control for non-replicating M. tuberculosis project (AID 489018); assay type: functional; details: Mycobacterium tuberculosis
[16] = THP-1 cell cytotoxicity, dose response, cytotoxicity control for non-replicating M. tuberculosis project (AID 489025); assay type: functional
[17] = Vero E6 cell cytotoxicity, dose response, cytotoxicity control for non-replicating M. tuberculosis project, secondary assay (AID 492998); assay type: functional, VeroE6; details: Vero C1008
[18] = target: T5, Streptokinase A (Streptococcus pyogenes serotype M1, UniProt P10520); assay: viability-normalized secreted streptokinase activity reduction – plasminogen activation absorbance, OD405, dose response (AID 1914); assay type: functional, Streptococcus pyogenes M1 GAS;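 further: secreted streptokinase activity via plasminogen activation per viability signal from cell pellet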
T5 sequence (P10520 whole entry): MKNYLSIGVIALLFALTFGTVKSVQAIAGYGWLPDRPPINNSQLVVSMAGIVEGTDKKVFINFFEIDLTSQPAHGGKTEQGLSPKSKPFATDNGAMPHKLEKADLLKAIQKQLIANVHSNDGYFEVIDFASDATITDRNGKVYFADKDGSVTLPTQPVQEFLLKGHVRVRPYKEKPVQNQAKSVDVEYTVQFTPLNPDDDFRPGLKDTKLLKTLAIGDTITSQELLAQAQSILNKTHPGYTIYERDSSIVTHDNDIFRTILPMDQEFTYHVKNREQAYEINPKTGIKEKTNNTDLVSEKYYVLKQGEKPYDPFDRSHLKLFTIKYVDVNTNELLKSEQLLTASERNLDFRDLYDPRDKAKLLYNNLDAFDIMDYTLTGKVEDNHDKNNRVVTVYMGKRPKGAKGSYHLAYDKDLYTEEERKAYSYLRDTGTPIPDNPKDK

[19] = system: Streptococcus sp. 'group A'; assay: Streptococcus pyogenes SK(-)GAS viability under kanamycin – luminescence, BacTiterGlo, confirmation, counter-screen for streptokinase expression inhibitor project, dose response (AID 1900); assay type: functional, organism-based
[20] = microbe, parasite or virus in culture; assay type: functional; details: Mycobacterium tuberculosis
[21] = target: T6, Protein skinhead-1 (Caenorhabditis elegans, UniProt P34707); assay type: functional
T6 sequence (P34707 whole entry): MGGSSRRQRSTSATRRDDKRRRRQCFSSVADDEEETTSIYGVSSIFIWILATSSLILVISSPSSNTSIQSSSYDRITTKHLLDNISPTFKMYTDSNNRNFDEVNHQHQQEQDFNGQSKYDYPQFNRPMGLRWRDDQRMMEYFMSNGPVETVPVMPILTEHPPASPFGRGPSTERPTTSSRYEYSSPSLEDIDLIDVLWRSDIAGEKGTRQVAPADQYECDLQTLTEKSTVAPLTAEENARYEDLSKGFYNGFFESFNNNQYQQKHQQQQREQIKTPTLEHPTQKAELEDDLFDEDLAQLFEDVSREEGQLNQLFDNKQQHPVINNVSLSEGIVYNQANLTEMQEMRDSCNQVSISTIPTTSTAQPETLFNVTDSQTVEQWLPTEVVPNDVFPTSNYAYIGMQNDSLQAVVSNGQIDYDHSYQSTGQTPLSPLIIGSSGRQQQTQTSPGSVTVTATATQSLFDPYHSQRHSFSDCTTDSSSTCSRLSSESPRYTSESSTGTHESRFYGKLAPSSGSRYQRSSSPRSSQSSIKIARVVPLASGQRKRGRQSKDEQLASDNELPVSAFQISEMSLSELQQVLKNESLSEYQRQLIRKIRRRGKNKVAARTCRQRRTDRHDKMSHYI

Sequence of Cytochrome P450 2C9 (P11712 whole entry): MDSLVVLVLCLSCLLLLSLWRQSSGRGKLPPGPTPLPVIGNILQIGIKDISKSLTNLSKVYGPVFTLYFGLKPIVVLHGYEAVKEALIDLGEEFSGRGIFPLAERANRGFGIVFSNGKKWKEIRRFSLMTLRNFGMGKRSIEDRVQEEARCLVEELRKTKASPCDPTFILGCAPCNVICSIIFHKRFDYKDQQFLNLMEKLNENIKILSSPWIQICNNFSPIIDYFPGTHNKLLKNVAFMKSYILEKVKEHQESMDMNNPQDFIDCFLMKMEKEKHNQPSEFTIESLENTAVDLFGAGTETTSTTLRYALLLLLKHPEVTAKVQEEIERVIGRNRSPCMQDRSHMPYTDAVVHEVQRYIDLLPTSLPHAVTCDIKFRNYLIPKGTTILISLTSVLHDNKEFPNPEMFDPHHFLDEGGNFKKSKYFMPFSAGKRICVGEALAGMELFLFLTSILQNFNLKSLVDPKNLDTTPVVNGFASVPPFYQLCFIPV
Sequence of Voltage-dependent T-type calcium channel subunit alpha-1H (O95180 whole entry): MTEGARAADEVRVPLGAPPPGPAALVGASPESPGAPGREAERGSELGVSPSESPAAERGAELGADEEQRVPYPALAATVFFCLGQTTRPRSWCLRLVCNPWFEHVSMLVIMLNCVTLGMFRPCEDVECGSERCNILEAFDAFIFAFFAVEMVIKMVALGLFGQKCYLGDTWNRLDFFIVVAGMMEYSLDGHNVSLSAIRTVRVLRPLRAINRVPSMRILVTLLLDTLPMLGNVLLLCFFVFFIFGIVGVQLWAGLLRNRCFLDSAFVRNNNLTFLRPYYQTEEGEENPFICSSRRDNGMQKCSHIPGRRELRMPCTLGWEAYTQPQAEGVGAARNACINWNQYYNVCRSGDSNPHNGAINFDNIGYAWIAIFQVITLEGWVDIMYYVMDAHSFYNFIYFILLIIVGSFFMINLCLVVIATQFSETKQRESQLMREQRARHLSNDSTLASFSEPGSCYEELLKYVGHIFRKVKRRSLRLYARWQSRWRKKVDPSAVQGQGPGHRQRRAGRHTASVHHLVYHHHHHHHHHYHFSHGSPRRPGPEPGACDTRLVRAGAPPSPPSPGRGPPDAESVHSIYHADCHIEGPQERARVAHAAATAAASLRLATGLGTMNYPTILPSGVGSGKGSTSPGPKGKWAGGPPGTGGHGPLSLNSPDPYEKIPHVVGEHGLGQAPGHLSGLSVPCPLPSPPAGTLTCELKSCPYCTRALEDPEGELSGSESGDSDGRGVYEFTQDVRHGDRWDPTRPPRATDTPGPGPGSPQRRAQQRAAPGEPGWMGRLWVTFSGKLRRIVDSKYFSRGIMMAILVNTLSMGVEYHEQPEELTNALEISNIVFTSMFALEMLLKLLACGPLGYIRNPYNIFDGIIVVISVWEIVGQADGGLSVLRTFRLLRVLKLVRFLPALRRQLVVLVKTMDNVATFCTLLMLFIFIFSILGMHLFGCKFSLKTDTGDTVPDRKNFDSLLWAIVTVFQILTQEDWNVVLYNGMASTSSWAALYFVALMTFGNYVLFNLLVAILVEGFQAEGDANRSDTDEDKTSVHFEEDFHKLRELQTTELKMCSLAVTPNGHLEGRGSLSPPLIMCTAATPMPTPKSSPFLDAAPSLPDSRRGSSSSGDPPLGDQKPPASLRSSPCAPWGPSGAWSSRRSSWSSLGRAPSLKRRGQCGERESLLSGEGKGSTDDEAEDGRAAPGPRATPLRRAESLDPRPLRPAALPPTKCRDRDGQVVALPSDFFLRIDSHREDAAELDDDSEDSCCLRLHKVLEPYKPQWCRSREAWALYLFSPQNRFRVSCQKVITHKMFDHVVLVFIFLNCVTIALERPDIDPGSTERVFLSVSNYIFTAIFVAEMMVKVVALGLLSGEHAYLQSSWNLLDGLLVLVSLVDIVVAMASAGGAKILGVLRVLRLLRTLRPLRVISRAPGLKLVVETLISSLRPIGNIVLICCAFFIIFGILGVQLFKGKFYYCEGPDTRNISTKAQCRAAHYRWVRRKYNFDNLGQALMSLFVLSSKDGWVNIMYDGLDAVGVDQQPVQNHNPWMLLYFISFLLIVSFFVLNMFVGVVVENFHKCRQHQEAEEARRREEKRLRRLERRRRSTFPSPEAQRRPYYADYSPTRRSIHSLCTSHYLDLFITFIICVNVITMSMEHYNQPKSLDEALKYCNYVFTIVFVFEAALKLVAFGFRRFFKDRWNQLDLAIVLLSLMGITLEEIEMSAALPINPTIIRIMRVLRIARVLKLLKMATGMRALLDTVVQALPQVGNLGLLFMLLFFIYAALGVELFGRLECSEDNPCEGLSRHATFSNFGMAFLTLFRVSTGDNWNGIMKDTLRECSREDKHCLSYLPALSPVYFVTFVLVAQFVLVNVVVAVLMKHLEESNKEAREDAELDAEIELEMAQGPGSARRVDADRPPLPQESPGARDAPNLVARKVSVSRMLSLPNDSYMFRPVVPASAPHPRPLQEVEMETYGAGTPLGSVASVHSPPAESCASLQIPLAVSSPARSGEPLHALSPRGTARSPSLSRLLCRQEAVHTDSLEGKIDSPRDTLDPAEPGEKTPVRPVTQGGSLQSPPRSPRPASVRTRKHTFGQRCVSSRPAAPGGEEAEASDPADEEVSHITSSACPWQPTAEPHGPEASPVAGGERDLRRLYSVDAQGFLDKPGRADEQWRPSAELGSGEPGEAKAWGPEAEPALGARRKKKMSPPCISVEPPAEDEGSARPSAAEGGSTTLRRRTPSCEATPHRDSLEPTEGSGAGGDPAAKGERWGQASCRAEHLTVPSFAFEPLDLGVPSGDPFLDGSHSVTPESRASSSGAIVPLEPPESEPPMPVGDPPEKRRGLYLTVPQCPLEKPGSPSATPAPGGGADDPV
Sequence of Cytochrome P450 2C19 (P33261 whole entry): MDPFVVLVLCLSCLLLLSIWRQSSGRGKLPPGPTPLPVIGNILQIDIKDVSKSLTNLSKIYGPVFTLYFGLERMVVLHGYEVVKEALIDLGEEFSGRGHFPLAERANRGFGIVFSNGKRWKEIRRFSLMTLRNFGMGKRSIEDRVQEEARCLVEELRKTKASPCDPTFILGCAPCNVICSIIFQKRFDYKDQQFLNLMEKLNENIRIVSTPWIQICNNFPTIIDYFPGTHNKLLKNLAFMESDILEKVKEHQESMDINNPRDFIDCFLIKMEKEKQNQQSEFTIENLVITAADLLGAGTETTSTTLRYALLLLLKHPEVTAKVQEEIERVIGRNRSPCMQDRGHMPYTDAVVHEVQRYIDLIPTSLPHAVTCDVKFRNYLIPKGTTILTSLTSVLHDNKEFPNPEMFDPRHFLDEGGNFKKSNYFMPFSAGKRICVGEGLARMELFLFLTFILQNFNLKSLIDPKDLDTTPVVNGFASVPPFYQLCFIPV
Sequence of Large T antigen (P03070 whole entry): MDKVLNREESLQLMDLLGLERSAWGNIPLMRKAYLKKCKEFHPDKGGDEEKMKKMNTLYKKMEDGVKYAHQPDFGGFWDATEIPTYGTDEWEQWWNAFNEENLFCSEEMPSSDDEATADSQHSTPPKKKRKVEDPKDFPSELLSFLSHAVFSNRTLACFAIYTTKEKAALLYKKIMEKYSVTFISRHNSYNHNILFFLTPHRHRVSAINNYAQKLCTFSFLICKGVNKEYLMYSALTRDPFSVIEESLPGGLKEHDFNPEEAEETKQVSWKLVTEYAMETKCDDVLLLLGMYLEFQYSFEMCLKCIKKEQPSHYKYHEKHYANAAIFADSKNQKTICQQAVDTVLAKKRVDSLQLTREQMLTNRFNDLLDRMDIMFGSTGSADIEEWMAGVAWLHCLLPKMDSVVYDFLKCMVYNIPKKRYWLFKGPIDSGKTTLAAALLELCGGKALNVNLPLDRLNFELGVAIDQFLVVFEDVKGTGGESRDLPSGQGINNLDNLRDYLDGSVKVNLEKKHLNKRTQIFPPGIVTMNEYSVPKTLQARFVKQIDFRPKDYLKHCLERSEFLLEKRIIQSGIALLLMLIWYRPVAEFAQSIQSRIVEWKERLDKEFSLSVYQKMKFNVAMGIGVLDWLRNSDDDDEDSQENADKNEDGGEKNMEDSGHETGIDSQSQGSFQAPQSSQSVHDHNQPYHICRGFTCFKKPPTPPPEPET

C=CCn1cc(C(=O)NCc2ccco2)c(=O)c2cc(S(=O)(=O)N3CCCCCC3)ccc21
IC50 [1]: 7.26 µM (active) | EC50 [2]: 6.32 µM (active) | IC50 [3]: 6.69 µM (active)

C[C@@H](NC(=O)/C(C#N)=C/c1ccc(O)c(O)c1)c1ccccc1
AC50 [4]: inconclusive | IC50 [5]: 7.28 µM (active) | AC50 ([6]; read-out: AC50): 39.8 µM (inconclusive)

Cc1ccc(-c2n[nH]c3c2C(c2cccc(O)c2)N(c2ccc(C(=O)O)cc2)C3=O)cc1 (configuration not stated)
IC50 [7]: 36.6 µM (active)

Cc1cccc(C)c1NC(=O)CSc1nnc(-c2ccccc2)n1Cc1ccc2c(c1)OCO2
EC50 [2]: 5.4 µM (active)

Nc1nc(S)nc(O)c1/N=N\c1c(Br)cc(S(N)(=O)=O)cc1Br
AC50 [8]: 3.16 µM (inconclusive) | AC50 [4]: inconclusive | AC50 [6]: inconclusive

Cc1c(Cl)cccc1NC(=O)c1nc(C)n(-c2cc(OC(C)C)c(Cl)cc2Cl)n1
EC50 [2]: 7.19 µM (active) | EC50 [9]: 2.77 µM (active) | EC50 [10]: > 60 µM (not active)

CCC1=NN2C(=N)/C(=C/c3c(C)nn(-c4ccccc4)c3Cl)C(=O)N=C2S1
AC50 [11]: 78.8 µM (active) | IC50 [7]: 46.1 µM (active)

Cn1c(Oc2ccccc2)c(C=O)c2ccccc21
AC50 [4]: inconclusive

O=S(=O)(c1ccc(Oc2ccc(Cl)cc2)c(S(=O)(=O)N2CCCCC2)c1)N1CCCCC1
EC50 [2]: 2.28 µM (active)

COc1ccc(/C=N/NC(=O)CSc2nnc(O)nc2O)cc1
IC50 [7]: 29 µM (active) | IC50 [12]: 7.36 µM (active)

CC(Sc1nnnn1-c1ccccc1)C(=O)Nc1ccc(Cl)cn1 (configuration not stated)
EC50 [2]: 6.14 µM (active)

O=C(CSc1nnc(-c2ccc(Cl)cc2)n1Cc1ccco1)NCc1ccc2c(c1)OCO2
EC50 [2]: 1.11 µM (active)

Cc1cc(NC(=O)c2sccc2C)n(-c2nc3ccccc3[nH]2)n1
IC50 [13]: 4.09 µM (active) | EC50 [14]: 5.49 µM (active) | CC50 [15]: > 20 µM (active) | CC50 [16]: > 40 µM (active) | CC50 [17]: 12.8 µM (active) | EC50 [18]: > 150 µM (not active) | EC50 [19]: 3.9 µM (active) | CC50 [20]: 28.5 µM (active)

CCC(=O)Nc1cc2c(cc1C(=O)c1ccccc1)OCCO2
AC50 [4]: inconclusive

CCn1c(NC(=O)c2nn(C)cc2Br)nc2ccccc21
IC50 [13]: 5.5 µM (active) | CC50 [15]: > 20 µM (active) | CC50 [16]: > 40 µM (active) | CC50 [17]: > 20 µM (active) | CC50 [20]: > 40 µM (active)

CCn1c(SCC(=O)NC2CCCCC2)nnc1-c1cc2cccc(OC)c2o1
AC50 [4]: inconclusive | IC50 [21]: > 100 µM (inactive)

CCCCCCCC(=O)N/N=C(\C)c1ccc(O)cc1O
CC50 [15]: 20 µM (active) | CC50 [16]: 20 µM (active) | CC50 [17]: 12.6 µM (active)

CC(C)NS(=O)(=O)c1ccc(CCC(=O)NCc2ccc3c(c2)OCO3)cc1
IC50 [7]: 33.6 µM (active)
